“And” between values parts separate entries of the source, which are not always exact repeats. Equal values may be shown once.
How the values were obtained:
[1] = test system: blood pressure of SHR rat; assay: Reduction of blood pressure of anesthetized SHR rat; format: in vivo, spontaneously hypertensive rat (SHR); conditions: SHR rat; for Diastolic pressure / Systolic pressure: 10 mg/kg intravenous; for reduction of systolic pressure and diastolic pressure: dosage range 10-200 mg/kg, intravenous
Protocol: (§1) A spontaneously hypertensive rat (SHR) was anesthetized with 40 mg/ml pentobarbital, and fixed by its back on an experimental stand. The skin at its neck was cut open after removing hair, and thereafter the right common carotid artery was separated with its proximal end being clamped by a artery clamp and its axifugal end being ligated by a thread. A V-shape cut was made with scissors at the axifugal end, into which an arterial cannula filled with heparin physiological saline was inserted. The arterial cannula was connected with a blood pressure transducer, and then the blood pressure transducer was connected to a computer-controlled three-way physiological-pharmacological recorder. The right femoral vein of the rat was separated and intubated for the injection of a drug. When the blood pressure became stable (i.e., the blood pressure contraction curve became straight), the rat was administered by intravenous route.

[2] = test system: aorta smooth muscle of rabbit; assay: Effects on aorta of rabbit (contraction of isolated aorta section caused by adrenalin); parameters: species or system New Zealand rabbit
Protocol: A New Zealand rabbit was beheaded and unconscious. After thoracotomy, its thoracic aorta was quickly taken out, and quickly placed in and flushed with a pre-cooled LOCK's solution (which comprised of 1000 ml water, 9 g NaCl, 0.35 g KCl, 0.35 g MgSO4.7H2O, 0.16 g KH2PO4, and 1 g NaHCO3) to remove bloodiness. The connective tissue outside the blood vessel was carefully cut off, and an aorta section of 2-3 mm wide at an angle of 45° relative to the vessel was taken for use in the following test.
The aorta section of 2 cm long was clamped at its both ends with frog heart clips, and put in a thermostatic perfusion tank of 38° C. with the lower end being fixed at the bottom of the tank and the top end being connected by a thread to a tensile transducer of a two-way electrophysiolograph. Oxygen was bubbled to the solution in the perfusion tank, and the contraction force of the aorta section was recorded after balancing it in the solution for 80 min. During which, the LOCK's solution was changed once per 20 min. After adding 1.2×10^−6 mg/ml adrenalin to the solution, the contraction curve of the aorta section was recorded.

[3] = test system: ileum smooth muscle of guinea pig; assay: Effects on ileum smooth muscle of guinea pig (automatic rhythmic contraction of isolated ileum section)
Protocol: The section was clamped at its both ends with frog heart clips, and placed in a perfusion tank with the lower end being fixed at the bottom of the tank and the top end being connected by a thread to a tensile transducer of a two-way electrophysiolograph, so that the automatic rhythmic contraction of the ileum section was recorded. The Tai's nutrient solution in the tank was kept at a temperature of 35° C., into which pure […] was bubbled. […] The normal contraction curve of the ileum section was firstly recorded using isoprenaline as a positive control.

blood pressure of cats = assay: Reduction of blood pressure of cat; format: in vivo; conditions: cats, 10 mg/kg o.s; for Diastolic pressure, Animal 1-4 individually / Systolic pressure, Animal 1-4 individually / Systolic pressure, Animal 3-4 individually: 10 mg/kg
Protocol: as §1
Five cats of 2.5-3.2 kg were administered orally and intravenously respectively according to the method in Example 8, and then their systolic pressure and diastolic pressure were determined using normal cats non-administered as a control group.

[4] = 10 min after administration (Table 9)
[5] = 20 min after administration (Table 9)
[6] = 30 min after administration (Table 9)
[7] = 40 min after administration (Table 9)
[8] = 50 min after administration (Table 9)
[9] = 60 min after administration (Table 9)
[10] = 90 min after administration (Table 9)
[11] = 120 min after administration (Table 9)
[12] = 150 min after administration (Table 9)
[13] = 180 min after administration (Table 9)
[14] = before administration (Table 9)

Compound: CC1(C)CNCC(C)(C)C1=O.Cl [3,3,5,5-tetramethyl-4-piperidone hydrochloride]
- Diastolic pressure ([1]; 5 min after administration): 109 ± 13 mm/Hg
- Systolic pressure ([1]; 5 min after administration): 139 ± 19 mm/Hg
- Diastolic pressure ([1]; 60 min after administration): 89 ± 12 mm/Hg
- Systolic pressure ([1]; 60 min after administration): 123 ± 11 mm/Hg
- Diastolic pressure ([1]; 120 min after administration): 80 ± 23 mm/Hg
- Systolic pressure ([1]; 120 min after administration): 129 ± 17 mm/Hg
- Diastolic pressure ([1]; 240 min after administration): 112 ± 16 mm/Hg
- Systolic pressure ([1]; 240 min after administration): 169 ± 14 mm/Hg
- Diastolic pressure ([1]; before administration): 119 ± 15 mm/Hg
- Systolic pressure ([1]; before administration): 170 ± 9.3 mm/Hg
- reduction of systolic pressure and diastolic pressure [1]: could obviously reduce the systolic pressure and diastolic pressure of SHR rat

Compound: CCN1CC(C)(C)C(=O)C(C)(C)C1 [Compound of formula Ia, 1-ethyl-3,3,5,5-tetramethyl-4-piperidone]
- Time of taking effect ([2]; concentration 1 × 10^−4 mg/ml): 3 min
- Contraction force ([2]; concentration 1 × 10^−4 mg/ml, 10 min, then adrenalin 1.2×10^−6 mg/ml, relative to original value): 0.3
- reduction of the contraction of aorta section caused by adrenalin ([2]; concentration range 5×10^−3-1×10^−4 mg/ml): could obviously reduce the contraction of aorta section caused by adrenalin
- contraction force resumed by adrenalin, fraction of the original value ([2]; sample 10 min, then adrenalin 1.2×10^−6 mg/ml, stated for the three samples together): ½-⅓

Compound: CC1(C)CNCC(C)(C)C1O [Compound of formula Ib, 3,3,5,5-tetramethyl-4-piperidanol]
- Relaxation Time ([3]; concentration 1 × 10^−4 mg/ml): 5 h
- Time of taking effect ([3]; concentration 1 × 10^−4 mg/ml): 3 min
- inhibition of the automatic rhythmic contraction of the ileum section ([3]; different concentrations): could inhibit the automatic rhythmic contraction of the ileum section
- Systolic pressure ([1]; 5 min after administration): 140 ± 19 mm/Hg
- Diastolic pressure ([1]; 60 min after administration): 88 ± 10 mm/Hg
- Systolic pressure ([1]; 60 min after administration): 121 ± 15 mm/Hg
- Diastolic pressure ([1]; 120 min after administration): 89 ± 8.9 mm/Hg
- Systolic pressure ([1]; 120 min after administration): 126 ± 16 mm/Hg
- Diastolic pressure ([1]; 240 min after administration): 107 ± 9.2 mm/Hg
- Systolic pressure ([1]; 240 min after administration): 162 ± 11 mm/Hg
- Diastolic pressure ([1]; before administration): 125 ± 17 mm/Hg
- Systolic pressure ([1]; before administration): 178 ± 13 mm/Hg
- reduction of systolic pressure and diastolic pressure [1]: could obviously reduce the systolic pressure and diastolic pressure of SHR rat
- Average Diastolic pressure (blood pressure of cats; [4]): 106.75 mmHg
- Average Systolic pressure (blood pressure of cats; [4]): 141.75 mmHg
- Diastolic pressure, Animal 1-4 individually (blood pressure of cats; [4]): 119 mmHg and 105 mmHg and 100 mmHg and 103 mmHg
- Systolic pressure, Animal 1-4 individually (blood pressure of cats; [4]): 136 mmHg and 139 mmHg and 145 mmHg and 147 mmHg
- Average Diastolic pressure (blood pressure of cats; [5]): 104.25 mmHg
- Average Systolic pressure (blood pressure of cats; [5]): 140 mmHg
- Diastolic pressure, Animal 1-4 individually (blood pressure of cats; [5]): 135 mmHg and 89 mmHg (2×) and 104 mmHg
- Systolic pressure, Animal 1-4 individually (blood pressure of cats; [5]): 146 mmHg and 125 mmHg and 153 mmHg and 136 mmHg
- Average Diastolic pressure (blood pressure of cats; [6]): 104.75 mmHg
- Average Systolic pressure (blood pressure of cats; [6]): 140.5 mmHg
- Diastolic pressure, Animal 1-4 individually (blood pressure of cats; [6]): 130 mmHg and 90 mmHg (2×) and 109 mmHg
- Systolic pressure, Animal 1-4 individually (blood pressure of cats; [6]): 146 mmHg and 126 mmHg and 154 mmHg and 136 mmHg
- Average Diastolic pressure (blood pressure of cats; [7]): 102.25 mmHg
- Average Systolic pressure (blood pressure of cats; [7]): 139 mmHg
- Diastolic pressure, Animal 1-4 individually (blood pressure of cats; [7]): 126 mmHg and 91 mmHg and 102 mmHg and 90 mmHg
- Systolic pressure, Animal 1-4 individually (blood pressure of cats; [7]): 140 mmHg and 126 mmHg and 154 mmHg and 136 mmHg
- Average Diastolic pressure (blood pressure of cats; [8]): 103 mmHg
- Average Systolic pressure (blood pressure of cats; [8]): 136.5 mmHg
- Diastolic pressure, Animal 1-4 individually (blood pressure of cats; [8]): 126 mmHg and 96 mmHg and 103 mmHg and 87 mmHg
- Systolic pressure, Animal 1-4 individually (blood pressure of cats; [8]): 136 mmHg and 130 mmHg (2×) and 150 mmHg
- Average Diastolic pressure (blood pressure of cats; [9]): 109 mmHg
- Average Systolic pressure (blood pressure of cats; [9]): 138 mmHg
- Diastolic pressure, Animal 1-4 individually (blood pressure of cats; [9]): 123 mmHg and 97 mmHg and 102 mmHg and 114 mmHg
- Systolic pressure, Animal 1-4 individually (blood pressure of cats; [9]): 140 mmHg and 122 mmHg and 152 mmHg and 138 mmHg
- Average Diastolic pressure (blood pressure of cats; [10]): 109.25 mmHg
- Average Systolic pressure (blood pressure of cats; [10]): 141.75 mmHg
- Diastolic pressure, Animal 1-4 individually (blood pressure of cats; [10]): 125 mmHg and 95 mmHg and 110 mmHg and 107 mmHg
- Systolic pressure, Animal 1-4 individually (blood pressure of cats; [10]): 135 mmHg and 130 mmHg and 156 mmHg and 146 mmHg
- Average Diastolic pressure (blood pressure of cats; [11]): 116.75 mmHg
- Average Systolic pressure (blood pressure of cats; [11]): 151.5 mmHg
- Diastolic pressure, Animal 1-4 individually (blood pressure of cats; [11]): 131 mmHg and 94 mmHg and 115 mmHg and 127 mmHg
- Systolic pressure, Animal 1-4 individually (blood pressure of cats; [11]): 146 mmHg and 131 mmHg and 165 mmHg and 164 mmHg
- Average Diastolic pressure (blood pressure of cats; [12]): 116.75 mmHg
- Average Systolic pressure (blood pressure of cats; [12]): 155.25 mmHg
- Diastolic pressure, Animal 1-4 individually (blood pressure of cats; [12]): 132 mmHg and 98 mmHg and 117 mmHg and 120 mmHg
- Systolic pressure, Animal 1-4 individually (blood pressure of cats; [12]): 145 mmHg and 139 mmHg and 166 mmHg and 171 mmHg
- Average Diastolic pressure (blood pressure of cats; [13]): 118.5 mmHg
- Average Systolic pressure (blood pressure of cats; [13]): 158.5 mmHg
- Diastolic pressure, Animal 1-4 individually (blood pressure of cats; [13]): 133 mmHg and 97 mmHg and 113 mmHg and 131 mmHg
- Systolic pressure, Animal 1-4 individually (blood pressure of cats; [13]): 152 mmHg and 142 mmHg and 160 mmHg and 180 mmHg
- Systolic pressure, Animal 3-4 individually (blood pressure of cats; 210 min after administration (Table 9)): 156 mmHg and 186 mmHg
- Average Systolic pressure (blood pressure of cats; 210 min after administration (Table 9; two animals)): 171 mmHg
- Systolic pressure, Animal 3-4 individually (blood pressure of cats; 240 min after administration (Table 9)): 155 mmHg and 202 mmHg
- Average Systolic pressure (blood pressure of cats; 240 min after administration (Table 9; two animals)): 178.5 mmHg
- Average Diastolic pressure (blood pressure of cats; [14]): 140 mmHg
- Average Systolic pressure (blood pressure of cats; [14]): 195.25 mmHg
- Diastolic pressure, Animal 1-4 individually (blood pressure of cats; [14]): 134 mmHg and 156 mmHg and 116 mmHg and 154 mmHg
- Systolic pressure, Animal 1-4 individually (blood pressure of cats; [14]): 150 mmHg and 209 mmHg and 185 mmHg and 237 mmHg

Compound: CC(C)NCC(O)c1ccc(O)c(O)c1 (stereo not drawn) [Isoprenaline, reference compound]
- Relaxation Time ([3]; concentration 5 × 10^−5 mg/ml): 0.3 h
- Time of taking effect ([3]; concentration 5 × 10^−5 mg/ml): 16 min
- time after flushing at which the inhibited contraction is resumed ([3]; concentration 5×10^−5 mg/ml, control): 20 min
- Time of taking effect ([2]; concentration 1.2 × 10^−6 mg/ml): 16 min
- Contraction force ([2]; concentration 1.2 × 10^−6 mg/ml, relative to original adrenalin contraction): 1

From patent publication US7608630B2, “Marasmius androsaceus L.es Fr extract, piperidone derivative, and their use for the preparation of hypertensives” (Hainan Yangpu New Special Pharmaceutical Co., Ltd., priority 2004, dated 2009)
